Drawing on PubChem BioAssay (NCI), this text covers GI50 and TGI for 17 compounds.

Holding throughout (assay): inhibition of tumour cell growth, NCI panel, 48 h
The subject of test [1] is 786-0 renal.
Test [2] relates to OVCAR-3 ovarian.
Test [3] has as its system SF-295 CNS.
The test system of test [4] is K-562 leukemia.
Test [5] deals with MDA-MB-435.
For test [6], the system named is HT29 colon.
The test system of test [7] is IGROV1 ovarian.
Test [8] concerns HCC-2998 colon.
Test [9] concerns RXF 393 renal.
Test [10] relates to SK-MEL-5 melanoma.

Where “and” joins values, the source holds several entries; their conditions need not be identical. Equal values may be shown once.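 Test compounds were applied to cells in 96-well plates for 48 hours at 5 doses. Here, GI50 denotes the concentration required for 50% inhibition of growth. At the TGI there is no net growth.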

For the compound `Oc1ccc2ccccc2c1N=Nc1nccs1`, the GI50 in test [1] is 0.476 µM; in [2], 0.417 µM; in [3] it was 3.93 µM; in test [4], 0.438 µM; in test [5] it was 3.03 µM; in test [6], 1.72 µM. The GI50 in test [7] was 0.172 µM; in [8] it was 3.61 µM; in test [9], 3.33 µM; in test [10], 3.55 µM. Further, the TGI in [1] is more than 41.7 µM; in test [2], 8.99 µM; in test [3], more than 57.4 µM; in [4] it was more than 100 µM; in test [5] it was 27.9 µM; in [6], 23.3 µM. The TGI was 6.95 µM in [7], 33.2 µM in [8], more than 59.2 µM in [9] and 15.6 µM in [10].

Consider `OCc1c[nH]c2ccccc12`, for which the GI50 in test [1] was 33.7 µM; in [2] it was 20.3 µM; in test [3], 19.4 µM; in test [4], 33.8 µM; in [5], 19.8 µM; in test [6], 24 µM. In addition, the GI50 in [7] was 14.1 µM; in [8] it was 20.2 µM; in test [9] it was 18.2 µM; in test [10] it was 14.4 µM. Further, the TGI in [1] was 93.3 µM; in [2], 49.3 µM; in test [3] it was 40.9 µM; in test [4], more than 100 µM; in test [5], 48.2 µM; in test [6] it was 54.6 µM. Moreover, the TGI in test [7] was determined as 42.2 µM; in test [8] it was 41 µM; in test [9], 43.8 µM; in test [10], 30.1 µM.

On to `N#Cc1ccc(O)c(C2=NCC(c3cccc(Oc4ccccc4)c3)O2)c1` (stereo not given), for which the GI50 in test [1] is 0.761 µM; in test [2], 0.432 µM; in test [3] it was 0.413 µM; in test [4] it was 0.394 µM; in test [5] it was 1.63 µM; in [6], 5.41 µM. The GI50 in [7] is 0.787 µM; in test [8], 0.881 µM; in test [9], 1.53 µM; in test [10], 0.549 µM. Moreover, the TGI in test [1] was 7.59 µM; in test [2] it was 10.8 µM; in test [3], 23.5 µM; in test [4] it was more than 100 µM; in [5], more than 100 µM; in test [6], 41.6 µM. The TGI in [7] turned out to be 12.1 µM; in test [8] it was 57.8 µM; in test [9], 9.56 µM; in test [10], 2.3 µM.

As to `CC(C)c1nc(CN(C)C(=O)N[C@H](C(=O)N[C@@H](Cc2ccccc2)C[C@H](O)[C@H](Cc2ccccc2)NC(=O)OCc2cncs2)C(C)C)cs1`, the GI50 was 24.7 µM in [1]; 21.5 µM in [2]; 22.1 µM in [3]; 26.6 µM in [4]; 20.1 µM in test [5]; 19.3 µM in [6]. The GI50 was 36.4 µM in test [7], 22.2 µM in test [8], 17.7 µM in test [9] and 17.1 µM in test [10]. Besides, the TGI is 53.5 µM in [1]; more than 56.5 µM in test [2]; 50.5 µM in test [3]; 92.1 µM in test [4]; 57.4 µM in test [5]; 50.6 µM in test [6]. Further, the TGI is more than 100 µM in [7], 45.2 µM in test [8], 35.8 µM in test [9] and 33.5 µM in test [10].

Regarding `COc1ccc(-c2cc(=O)c3c(OC)c(OC)c(OC)cc3o2)cc1`, the TGI was more than 100 µM in test [1]; 94.9 µM in [2]; 96.9 µM in test [3]; more than 100 µM in [4]; more than 100 µM in test [5]; 99.5 µM in test [6]. Also, the TGI in test [7] was more than 100 µM; in test [8] it was 49 µM; in test [9], more than 100 µM; in test [10] it was 43.3 µM.

As to `CC/C(=C(/c1ccc(O)cc1)c1ccc(OCCNC)cc1)c1ccccc1`, the GI50 in [1] was 1.64 µM; in test [2], 2.1 µM; in test [3] it was 1.95 µM; in [4], 1.86 µM; in test [5] it was 1.54 µM; in test [6], 2.02 µM. The GI50 in test [7] was 2.77 µM; in [8] it was 1.9 µM; in [9], 1.68 µM; in test [10], 1.67 µM. In addition, the TGI in [1] stood at 3.27 µM; in test [2] it was 4.52 µM; in [3] it was 3.95 µM; in test [4], 4.41 µM; in test [5], 2.98 µM; in [6], 3.83 µM. The TGI worked out at 7.66 µM in test [7], 3.46 µM in test [8], 3.69 µM in test [9] and 3.09 µM in [10].

On to `C=CC(=O)N1CC2(CCN(c3nc(OC4CCN(CCCOC)CC4)nc4c(OCC(F)(F)F)c(-c5c(C)ccc6[nH]ncc56)c(C5CC5)cc34)CC2)C1`, for which the GI50 is 4.4 µM in test [1]; 2.37 µM in test [2]; 2.08 µM in test [3]; 2.07 µM in test [4]; 1.85 µM in test [5]; 2.28 µM in test [6]. For the same compound, the GI50 in test [7] was 6.88 µM; in test [8], 2 µM; in test [9] it was 1.8 µM; in [10] it was 2.14 µM. Besides, the TGI came to 18.2 µM in test [1]; 5.28 µM in test [2]; 5.65 µM in test [3]; 5.84 µM in [4]; 4 µM in test [5]; 5.83 µM in test [6]. In addition, the TGI in [7] amounted to 21.3 µM; in [8], 4.64 µM; in [9], 3.73 µM; in [10], 4.93 µM.

`Nc1nc(Cl)c2ncn(Cc3ccc(C45CC6CC(CC(C6)C4)C5)c(O)c3)c2n1`: the GI50 in test [1] was 6.04 µM; in test [2] it was 2.32 µM; in test [3], 3.29 µM; in [5], 5.14 µM; in test [6], 4.04 µM; in [7] it was 4.72 µM. Also, the GI50 is 2.26 µM in test [8], 1.87 µM in test [9] and 0.558 µM in test [10]. The TGI stood at 20 µM in test [1]; 11.1 µM in test [2]; 17.4 µM in [3]; 23.2 µM in test [5]; 46.7 µM in test [6]; 21.9 µM in test [7]. Further, the results for the TGI in test [8], in [9] and in test [10] were 8.34 µM, 6.56 µM and 11 µM, respectively.

Take `CCc1ccc(/C=C\c2cc(OC)c(OC)c(OC)c2)cc1`: the GI50 was 0.0353 µM in [1] and 0.0577 µM in [8]. In addition, the TGI in test [1] is 14 µM; in test [2], 0.206 µM; in [3] it was 0.0171 µM; in test [5] it was 0.0066 µM; in test [6] it was 0.527 µM and 0.121 µM; in test [8] it was 0.342 µM and 0.438 µM. Besides, the TGI in test [9] stood at 0.0783 µM; in test [10] it was 0.464 µM.

For `O=C(/C(Br)=C/c1ccccc1)c1ccccc1`, the GI50 in [1] is 1.9 µM; in test [2] it was 2.2 µM; in [3], 11.8 µM; in test [4], 2.23 µM; in [5], 1.96 µM; in test [7], 1.66 µM. Also, the GI50 in test [8] was 6.8 µM; in test [9] it was 1.43 µM; in test [10], 4.96 µM. Besides, the TGI was determined as 3.48 µM in test [1]; 5.59 µM in [2]; 25.9 µM in [3]; 9.28 µM in [4]; 4.67 µM in test [5]; 4.68 µM in [7]. Also, the TGI in test [8] was 19 µM; in test [9] it was 2.85 µM; in [10], 17.3 µM.

Regarding `COc1cc(C2NC(=O)c3ccccc3N2)ccc1OCCCCCOc1c(OC)cc(C2=NOC(c3cc(OC)c(OC)c(OC)c3)C2)cc1OC` (stereo not given), the GI50 in [1] was 27.4 µM; in [2], 12.6 µM; in test [3] it was 2.54 µM; in [4], 0.431 µM; in [5] it was 0.499 µM; in test [6], more than 100 µM. In addition, the values for the GI50 in test [7], in test [8] and in [10] were 0.601 µM, 1.14 µM and 0.142 µM, respectively. Further, the TGI is more than 78.7 µM in [1]; 44 µM in [2]; more than 100 µM in test [3]; more than 100 µM in test [4]; more than 100 µM in test [5]; more than 100 µM in test [6]. Besides, the TGI was more than 71 µM in test [7], 37.8 µM in test [8] and 0.546 µM in test [10].

With `COC1/C=C\C=C(/C)C(=O)NC2=CC(=O)C(=O)C(=C2O)CC(C)CC(OC)C(O)C(C)/C=C(\C)C1OC(N)=O` (stereo not given), the TGI in test [1] was 24.3 µM; in test [2], 19.7 µM; in test [3], more than 100 µM; in test [4], more than 100 µM; in test [5] it was 11.8 µM; in test [6], 17.8 µM. Also, the TGI in test [7] was more than 100 µM; in test [9], 27.5 µM; in [10], 43.7 µM.

Take `Oc1ccc(NCc2nc3ccccc3[nH]2)cc1`: the GI50 in [1] is 74.5 µM; in [2] it was 33.8 µM; in test [3], 24.4 µM; in test [5], more than 100 µM; in test [6], more than 100 µM; in test [7], 76.4 µM. Further, the GI50 in test [8] was 74.2 µM; in test [9] it was 30.3 µM; in test [10] it was 72.4 µM. Besides, the TGI is more than 100 µM in test [1]; more than 100 µM in [2]; 97.2 µM in [3]; more than 100 µM in test [5]; more than 100 µM in test [6]; more than 100 µM in test [7]. Besides, the TGI in test [8], in test [9] and in [10] was more than 100 µM in each case.

As for `O=c1[nH]ncc(Br)c1Br`, the GI50 in test [1] was 4.08 µM; in test [2], 1.75 µM; in test [3], 8.8 µM; in test [5] it was 2.2 µM; in test [6] it was 1.9 µM; in [7], 1.72 µM. The values for the GI50 in test [8], in [9] and in [10] were 1.89 µM, 1.38 µM and 4.38 µM, respectively. Besides, the TGI was determined as 14.1 µM in test [1]; 3.18 µM in test [2]; 22.5 µM in [3]; 6.2 µM in [5]; 3.5 µM in test [6]; 3.68 µM in test [7]. In addition, the results for the TGI in [8], in test [9] and in test [10] were 3.38 µM, 2.71 µM and 15.9 µM, respectively.

Consider `O=C1CCCCN1CCCCC#Cc1ccccc1C#Cc1ccc([N+](=O)[O-])cc1`, for which the GI50 is 8.41 µM in [1]; 10.9 µM in test [2]; 3.6 µM in [4]; 1.68 µM in test [5]; 3.74 µM in test [6]; 8.21 µM in test [7]. The GI50 in test [9] was 1.68 µM; in test [10], 1.75 µM. The TGI is 79 µM in test [1]; 23.6 µM in [2]; 22.3 µM in test [4]; 4.83 µM in [5]; 59.6 µM in test [6]; 37.5 µM in [7]. The TGI was found to be 11.1 µM in [9] and 3.88 µM in [10].

Take `Nc1cc(N)c2nc(-c3ccccc3)c(Nc3ccc(Cl)c(Cl)c3)nc2c1`: the GI50 in [1] was 14.7 µM; in test [2] it was 2.93 µM; in test [3], 12.4 µM; in test [4] it was 3.57 µM; in [5], 2.16 µM; in test [7], 4.92 µM. The GI50 in test [9] is 6.23 µM; in test [10], 11 µM. In addition, the TGI in test [1] was 37 µM; in test [2], 9.91 µM; in [3], 27.9 µM; in test [4], more than 100 µM; in test [5], 4.59 µM; in test [7], 21.1 µM. For the same compound, the results for the TGI in [9] and in test [10] were 31.2 µM and 25.5 µM, respectively.

For `Cn1c(=O)c2[nH]c(SCc3ccccn3)nc2n(C)c1=S`, the TGI in test [1], in test [2], in test [3], in test [4], in test [5] and in test [6] was more than 100 µM throughout. Further, the TGI in test [7], in test [9] and in [10] was more than 100 µM throughout.
